Test results from the supplement of paper PMC10627819.

Columns and labels:
Experiment in all cases: fitness (endpoint OD595 vs no drug) (fraction); higher = more growth
B. subtilis 168 = tested on: B. subtilis 168
Method in brief: (§1)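 Each well of a 384-well plate received 30 µl of culture at OD595 0.01, or 55 µl for S. pneumoniae. TSB, LB Lennox or CY served as media at 37 °C. OD595 was taken every 30 min for 14 h and corrected by subtracting the first reading. Fitness is the optical density at stationary-phase entry divided by the robust mean of no-drug controls, capped at 1.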

S. aureus DSM 20231 = tested on: S. aureus DSM 20231
Method in brief: as §1

S. pneumoniae D39V = tested on: S. pneumoniae D39V
Method in brief: as §1

S. aureus Newman = tested on: S. aureus Newman
Method in brief: as §1

CCC[C@@H]1C[C@@H](C(=O)N[C@@H]([C@H]2O[C@H](SC)[C@H](O)[C@@H](O)[C@H]2O)[C@H](C)Cl)N(C)C1 [Clindamycin] + CN(C)[C@@H]1C(O)=C(C(N)=O)C(=O)[C@@]2(O)C(O)=C3C(=O)c4c(O)ccc(Cl)c4[C@@](C)(O)[C@H]3C[C@@H]12 [Chlortetracycline]
fitness, one replicate
Details | first compound 0.0039 µg/mL | first compound 0.0078 µg/mL | first compound 0.0156 µg/mL | first compound 0.0312 µg/mL | first compound 0.0625 µg/mL | first compound 0.125 µg/mL
B. subtilis 168, partner 0.0475 µg/mL | 0.996 | 0.88 | 0.814 | – | – | –
B. subtilis 168, partner 0.095 µg/mL | 0.911 | 0.831 | 0.721 | – | – | –
B. subtilis 168, partner 0.19 µg/mL | 0.779 | 0.697 | 0.633 | – | – | –
S. aureus DSM 20231, partner 0.006 µg/mL | – | – | – | 0.198 | 0.0507 | 0.029

Details | fitness
B. subtilis 168, first compound 0.0625 µg/mL, partner 0.0475 µg/mL | 0.407
B. subtilis 168, first compound 0.0625 µg/mL, partner 0.095 µg/mL | 0.362
B. subtilis 168, first compound 0.0625 µg/mL, partner 0.19 µg/mL | 0.0596
B. subtilis 168, first compound 0.125 µg/mL, partner 0.0475 µg/mL | 0.352
B. subtilis 168, first compound 0.125 µg/mL, partner 0.095 µg/mL | 0.0555
B. subtilis 168, first compound 0.125 µg/mL, partner 0.19 µg/mL | 0.0594
B. subtilis 168, first compound 0.25 µg/mL, partner 0.0475 µg/mL | 0.0818
B. subtilis 168, first compound 0.25 µg/mL, partner 0.095 µg/mL | 0.0386
B. subtilis 168, first compound 0.25 µg/mL, partner 0.19 µg/mL | 0.0515
S. aureus DSM 20231, first compound 0.0312 µg/mL, partner 0.012 µg/mL | 0.0617
S. aureus DSM 20231, first compound 0.0312 µg/mL, partner 0.024 µg/mL | 0.038
S. aureus DSM 20231, first compound 0.0312 µg/mL, partner 0.048 µg/mL | 0.0237
S. aureus DSM 20231, first compound 0.0625 µg/mL, partner 0.012 µg/mL | 0.032
S. aureus DSM 20231, first compound 0.0625 µg/mL, partner 0.024 µg/mL | 0.0211
S. aureus DSM 20231, first compound 0.0625 µg/mL, partner 0.048 µg/mL | 0.0234
S. aureus DSM 20231, first compound 0.125 µg/mL, partner 0.012 µg/mL | 0.0303
S. aureus DSM 20231, first compound 0.125 µg/mL, partner 0.024 µg/mL | 0.0207
S. aureus DSM 20231, first compound 0.125 µg/mL, partner 0.048 µg/mL | 0.0343
S. pneumoniae D39V, first compound 0.0125 µg/mL, partner 0.012 µg/mL | 0.511
S. pneumoniae D39V, first compound 0.0125 µg/mL, partner 0.024 µg/mL | 0.383
S. pneumoniae D39V, first compound 0.0125 µg/mL, partner 0.048 µg/mL | 0.205
S. pneumoniae D39V, first compound 0.015 µg/mL, partner 0.375 µg/mL | 0.0214
S. pneumoniae D39V, first compound 0.015 µg/mL, partner 0.75 µg/mL | 0.0514
S. pneumoniae D39V, first compound 0.015 µg/mL, partner 1.5 µg/mL | 0.0726
S. pneumoniae D39V, first compound 0.025 µg/mL, partner 0.012 µg/mL | 0.334
S. pneumoniae D39V, first compound 0.025 µg/mL, partner 0.024 µg/mL | 0.216
S. pneumoniae D39V, first compound 0.025 µg/mL, partner 0.048 µg/mL | 0.122
S. pneumoniae D39V, first compound 0.03 µg/mL, partner 0.375 µg/mL | 0.0643
S. pneumoniae D39V, first compound 0.03 µg/mL, partner 0.75 µg/mL | 0.0687
S. pneumoniae D39V, first compound 0.03 µg/mL, partner 1.5 µg/mL | 0.0605
S. pneumoniae D39V, first compound 0.05 µg/mL, partner 0.012 µg/mL | 0.128
S. pneumoniae D39V, first compound 0.05 µg/mL, partner 0.024 µg/mL | 0.13
S. pneumoniae D39V, first compound 0.05 µg/mL, partner 0.048 µg/mL | 0.146
S. pneumoniae D39V, first compound 0.06 µg/mL, partner 0.375 µg/mL | 0.0503
S. pneumoniae D39V, first compound 0.06 µg/mL, partner 0.75 µg/mL | 0.0714
S. pneumoniae D39V, first compound 0.06 µg/mL, partner 1.5 µg/mL | 0.0678

CCC[C@@H]1C[C@@H](C(=O)N[C@@H]([C@H]2O[C@H](SC)[C@H](O)[C@@H](O)[C@H]2O)[C@H](C)Cl)N(C)C1 [Clindamycin] + CO/N=C(\C(=O)N[C@@H]1C(=O)N2C(C(=O)O)=C(COC(N)=O)CS[C@H]12)c1ccco1 [Cefuroxime]
one replicate
Details | fitness
B. subtilis 168, first compound 0.0039 µg/mL, partner 0.195 µg/mL | 0.442
B. subtilis 168, first compound 0.0039 µg/mL, partner 0.39 µg/mL | 0.397
B. subtilis 168, first compound 0.0039 µg/mL, partner 0.78 µg/mL | 0.389
B. subtilis 168, first compound 0.0078 µg/mL, partner 0.195 µg/mL | 0.438
B. subtilis 168, first compound 0.0078 µg/mL, partner 0.39 µg/mL | 0.367
B. subtilis 168, first compound 0.0078 µg/mL, partner 0.78 µg/mL | 0.392
B. subtilis 168, first compound 0.0156 µg/mL, partner 0.195 µg/mL | 0.366
B. subtilis 168, first compound 0.0156 µg/mL, partner 0.39 µg/mL | 0.326
B. subtilis 168, first compound 0.0156 µg/mL, partner 0.78 µg/mL | 0.28
B. subtilis 168, first compound 0.0625 µg/mL, partner 1.562 µg/mL | 0.135
B. subtilis 168, first compound 0.0625 µg/mL, partner 3.125 µg/mL | 0.0691
B. subtilis 168, first compound 0.0625 µg/mL, partner 6.25 µg/mL | 0.0572
B. subtilis 168, first compound 0.125 µg/mL, partner 1.562 µg/mL | 0.0526
B. subtilis 168, first compound 0.125 µg/mL, partner 3.125 µg/mL | 0.031
B. subtilis 168, first compound 0.125 µg/mL, partner 6.25 µg/mL | 0.0267
B. subtilis 168, first compound 0.25 µg/mL, partner 1.562 µg/mL | 0.0448
B. subtilis 168, first compound 0.25 µg/mL, partner 3.125 µg/mL | 0.028
B. subtilis 168, first compound 0.25 µg/mL, partner 6.25 µg/mL | 0.0276
S. aureus Newman, first compound 0.0312 µg/mL, partner 0.04875 µg/mL | 0.764
S. aureus Newman, first compound 0.0312 µg/mL, partner 0.0975 µg/mL | 0.681
S. aureus Newman, first compound 0.0312 µg/mL, partner 0.195 µg/mL | 0.718
S. aureus Newman, first compound 0.0625 µg/mL, partner 0.04875 µg/mL | 0.358
S. aureus Newman, first compound 0.0625 µg/mL, partner 0.0975 µg/mL | 0.304
S. aureus Newman, first compound 0.0625 µg/mL, partner 0.195 µg/mL | 0.21
S. aureus Newman, first compound 0.125 µg/mL, partner 0.04875 µg/mL | 0.111
S. aureus Newman, first compound 0.125 µg/mL, partner 0.0975 µg/mL | 0.0924
S. aureus Newman, first compound 0.125 µg/mL, partner 0.195 µg/mL | 0.078

fitness, B. subtilis 168
Details | first compound 0.0625 µg/mL | first compound 0.125 µg/mL | first compound 0.25 µg/mL
partner 0.04875 µg/mL | 0.396 | 0.401 | 0.218
partner 0.0975 µg/mL | 0.306 | 0.241 | 0.195
partner 0.195 µg/mL | 0.39 | 0.217 | 0.217

N[C@@H]1CONC1=O [Cycloserine D] + C/C(=C\C(=O)OCCCCCCCCC(=O)O)C[C@@H]1OC[C@H](C[C@@H]2O[C@H]2[C@@H](C)[C@H](C)O)[C@@H](O)[C@H]1O [Pseudomonic acid]
fitness, S. aureus Newman, one replicate
Details | first compound 0.375 µg/mL | first compound 0.75 µg/mL | first compound 1.5 µg/mL
partner 0.0313 µg/mL | 0.0489 | 0.0331 | 0.0484
partner 0.0625 µg/mL | 0.0296 | 0.0319 | 0.0149
partner 0.125 µg/mL | 0.0371 | 0.0384 | 0.031

N[C@@H]1CONC1=O [Cycloserine D] + CC1(C)S[C@@H]2[C@H](NC(=O)Cc3ccccc3)C(=O)N2[C@H]1C(=O)O [Penicillin G]
fitness, S. aureus Newman
Details | first compound 0.375 µg/mL | first compound 0.75 µg/mL | first compound 1.5 µg/mL
partner 0.0195 µg/mL | 0.966 | 0.916 | 0.892
partner 0.039 µg/mL | 0.922 | 0.932 | 0.957
partner 0.078 µg/mL | 0.886 | 0.923 | 0.854

N[C@@H]1CONC1=O [Cycloserine D] + CC1=C(C(=O)O)N2C(=O)[C@@H](NC(=O)[C@H](N)c3ccccc3)[C@H]2SC1 [Cephalexin]
fitness
Details | first compound 0.125 µg/mL | first compound 0.25 µg/mL | first compound 0.375 µg/mL | first compound 0.5 µg/mL | first compound 0.75 µg/mL | first compound 1.5 µg/mL
B. subtilis 168, partner 0.125 µg/mL | 0.865 | 0.894 | – | 0.848 | – | –
B. subtilis 168, partner 0.25 µg/mL | 0.909 | 0.857 | – | 0.921 | – | –
B. subtilis 168, partner 0.5 µg/mL | 0.911 | 0.88 | – | 0.867 | – | –
S. aureus Newman, partner 0.25 µg/mL | – | – | 0.948 | – | 0.955 | 0.926
S. aureus Newman, partner 0.5 µg/mL | – | – | 0.972 | – | ≥ 1 | 0.971
S. aureus Newman, partner 1 µg/mL | – | – | 0.992 | – | ≥ 1 | 0.995

B. subtilis 168, partner 1 µg/mL, one replicate
Details | fitness
first compound 0.125 µg/mL | ≥ 1
first compound 0.25 µg/mL | 0.91
first compound 0.5 µg/mL | 0.985

N[C@@H]1CONC1=O [Cycloserine D] + CC(=O)NC[C@H]1CN(c2ccc(N3CCOCC3)c(F)c2)C(=O)O1 [Linezolid]
fitness, one replicate
Details | first compound 0.125 µg/mL | first compound 0.25 µg/mL | first compound 0.375 µg/mL | first compound 0.5 µg/mL | first compound 0.75 µg/mL | first compound 1.5 µg/mL
B. subtilis 168, partner 0.0625 µg/mL | 0.943 | 0.866 | – | 0.846 | – | –
S. aureus DSM 20231, partner 1 µg/mL | – | – | 0.0372 | – | 0.0417 | 0.0279

fitness
Details | first compound 0.125 µg/mL | first compound 0.25 µg/mL | first compound 0.375 µg/mL | first compound 0.5 µg/mL | first compound 0.75 µg/mL | first compound 1.5 µg/mL
B. subtilis 168, partner 0.125 µg/mL | 0.566 | 0.574 | – | 0.562 | – | –
B. subtilis 168, partner 0.25 µg/mL | 0.135 | 0.115 | – | 0.13 | – | –
B. subtilis 168, partner 0.5 µg/mL | 0.0466 | 0.0569 | – | 0.0486 | – | –
S. aureus DSM 20231, partner 0.125 µg/mL | – | – | 0.913 | – | 0.837 | 0.885
S. aureus DSM 20231, partner 0.25 µg/mL | – | – | 0.517 | – | 0.597 | 0.537
S. aureus DSM 20231, partner 0.5 µg/mL | – | – | 0.162 | – | 0.168 | 0.162
